Measurements: publication PMC12951562, “SH2scan: Mapping SH2 Domain-Ligand Binding Selectivity for Inhibitors and Degraders” (Journal of Medicinal Chemistry, 2026)
Where two headings read alike, the source gives them in different places. Non-standard residues stand in square brackets, D forms with d. Residues, ends and D or L forms follow the SMILES beside them. pY = N[C@@H](Cc1ccc(OP(=O)(O)O)cc1)C(=O)O

Tests used:
Assay type in all cases: binding
CISH = target: T1, CISH (Homo sapiens, UniProt Q9NSE2); assay: biochemical; conditions: for remaining activity at 10 µM: read-out: percent of DMSO vehicle control; for Kd: dose-response, read-out: KD
T1 construct: the DNA-tagged SH2 domain concentrations used in this study were <0.1 nM; made in house; host or cells: HEK293 (transient transfection; unpurified extract)
T1 sequence (Q9NSE2 82-163 limits assumed): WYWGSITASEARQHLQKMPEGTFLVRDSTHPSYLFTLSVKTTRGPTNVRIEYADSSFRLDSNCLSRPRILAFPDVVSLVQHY

[1] = target: T2, STAT3(S614R)-nonphosphorylated (Homo sapiens, UniProt P40763, S614R); assay: biochemical; conditions: for Kd: dose-response; for remaining activity at 10 µM: primary screen
T2 construct: made in house; host or cells: HEK293 (transient transfection), unpurified extract, dephosphorylated by endogenous phosphatases

TNS4 = target: T3, TNS4 (Homo sapiens, UniProt Q8IZW8); assay: biochemical; conditions: for remaining activity at 10 µM: read-out: percent of DMSO vehicle control
T3 construct: made in house; host or cells: HEK293 (transient transfection), unpurified extract
T3 sequence (Q8IZW8 19-715): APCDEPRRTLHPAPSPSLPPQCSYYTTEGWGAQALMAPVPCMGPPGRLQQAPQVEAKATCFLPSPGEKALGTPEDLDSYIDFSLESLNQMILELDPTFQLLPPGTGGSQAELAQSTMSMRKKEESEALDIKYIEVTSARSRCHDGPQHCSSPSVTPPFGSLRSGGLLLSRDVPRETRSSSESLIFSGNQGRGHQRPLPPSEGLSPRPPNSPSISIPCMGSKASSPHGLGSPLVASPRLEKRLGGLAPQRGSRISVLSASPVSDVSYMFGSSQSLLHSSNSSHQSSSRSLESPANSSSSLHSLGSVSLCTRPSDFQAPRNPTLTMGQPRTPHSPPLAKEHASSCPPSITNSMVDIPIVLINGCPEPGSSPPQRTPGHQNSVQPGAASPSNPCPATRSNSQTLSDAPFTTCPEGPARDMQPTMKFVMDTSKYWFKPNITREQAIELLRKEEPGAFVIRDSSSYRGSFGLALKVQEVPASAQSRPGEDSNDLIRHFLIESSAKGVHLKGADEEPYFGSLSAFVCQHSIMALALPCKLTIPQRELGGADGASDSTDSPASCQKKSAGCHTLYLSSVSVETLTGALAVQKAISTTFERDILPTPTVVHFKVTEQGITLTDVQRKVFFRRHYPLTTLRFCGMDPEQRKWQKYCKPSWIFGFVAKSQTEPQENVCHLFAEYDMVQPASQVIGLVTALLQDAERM

PTPN11(SH2dom.N-term.) = target: T4, PTPN11(SH2dom.N-term.) (Homo sapiens, UniProt Q06124); conditions: primary screen, 10 μM
T4 construct: SH2dom.N-term. denotes SH2 domain closest to N-terminus of protein; made in house; host or cells: HEK293 (transient transfection, unpurified extract)
T4 sequence (Q06124 6-102 limits assumed): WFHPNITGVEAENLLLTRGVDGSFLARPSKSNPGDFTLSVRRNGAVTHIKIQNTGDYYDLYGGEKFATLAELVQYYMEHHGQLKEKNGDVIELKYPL

[2] = target: T5, STAT3(D661Y)-nonphosphorylated (Homo sapiens, UniProt P40763, D661Y); assay: biochemical; conditions: for Kd: dose-response; for remaining activity at 10 µM: primary screen
T5 construct: made in house; host or cells: HEK293 (transient transfection), unpurified extract, dephosphorylated by endogenous phosphatases

[3] = target: T6, STAT3(N647I)-nonphosphorylated (Homo sapiens, UniProt P40763, N647I); assay: biochemical; conditions: for Kd: dose-response; for remaining activity at 10 µM: primary screen
T6 construct: made in house; host or cells: HEK293 (transient transfection), unpurified extract, dephosphorylated by endogenous phosphatases

SHIP2 = target: T7, SHIP2 (Homo sapiens, UniProt O15357); assay: biochemical; conditions: for remaining activity at 10 µM: read-out: percent of DMSO vehicle control
T7 construct: made in house; host or cells: HEK293 (transient transfection), unpurified extract
T7 sequence (O15357 1-1258): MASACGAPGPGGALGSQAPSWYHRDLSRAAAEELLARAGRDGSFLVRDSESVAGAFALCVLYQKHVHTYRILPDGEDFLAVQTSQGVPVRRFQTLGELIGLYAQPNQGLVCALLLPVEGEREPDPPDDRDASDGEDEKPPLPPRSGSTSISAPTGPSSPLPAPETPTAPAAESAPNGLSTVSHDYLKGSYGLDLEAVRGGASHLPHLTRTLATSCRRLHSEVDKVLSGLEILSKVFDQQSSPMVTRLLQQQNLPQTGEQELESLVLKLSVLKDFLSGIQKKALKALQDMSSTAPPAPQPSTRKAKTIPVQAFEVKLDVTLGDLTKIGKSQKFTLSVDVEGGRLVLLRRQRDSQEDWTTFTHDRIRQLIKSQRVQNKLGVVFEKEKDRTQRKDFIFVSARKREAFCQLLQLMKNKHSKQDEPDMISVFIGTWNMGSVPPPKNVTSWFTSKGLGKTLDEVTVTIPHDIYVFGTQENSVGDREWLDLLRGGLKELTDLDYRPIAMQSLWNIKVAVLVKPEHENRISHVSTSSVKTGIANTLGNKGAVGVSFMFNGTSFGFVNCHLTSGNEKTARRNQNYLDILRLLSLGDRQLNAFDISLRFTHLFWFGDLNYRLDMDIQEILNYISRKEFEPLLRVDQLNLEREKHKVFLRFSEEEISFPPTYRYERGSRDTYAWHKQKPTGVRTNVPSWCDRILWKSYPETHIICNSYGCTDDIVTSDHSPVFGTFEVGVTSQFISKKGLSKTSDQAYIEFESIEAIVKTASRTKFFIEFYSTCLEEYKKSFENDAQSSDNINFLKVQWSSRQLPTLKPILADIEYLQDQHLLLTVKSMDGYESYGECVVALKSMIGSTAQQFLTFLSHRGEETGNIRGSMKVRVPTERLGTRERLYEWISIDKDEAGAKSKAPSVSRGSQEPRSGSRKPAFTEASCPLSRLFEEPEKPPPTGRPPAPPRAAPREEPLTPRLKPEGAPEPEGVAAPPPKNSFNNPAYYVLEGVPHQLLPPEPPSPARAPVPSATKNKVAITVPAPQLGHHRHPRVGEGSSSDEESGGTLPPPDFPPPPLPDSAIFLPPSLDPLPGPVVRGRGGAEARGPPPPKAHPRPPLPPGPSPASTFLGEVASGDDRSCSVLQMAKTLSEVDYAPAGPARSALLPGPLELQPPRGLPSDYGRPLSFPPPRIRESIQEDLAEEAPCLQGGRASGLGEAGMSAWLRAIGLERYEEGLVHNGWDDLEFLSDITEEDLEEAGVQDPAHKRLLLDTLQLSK

SH2D1A = target: T8, SH2D1A (Homo sapiens, UniProt O60880); assay: biochemical; conditions: read-out: percent of DMSO vehicle control
T8 construct: made in house; host or cells: HEK293 (transient transfection), unpurified extract
T8 sequence (O60880 1-128): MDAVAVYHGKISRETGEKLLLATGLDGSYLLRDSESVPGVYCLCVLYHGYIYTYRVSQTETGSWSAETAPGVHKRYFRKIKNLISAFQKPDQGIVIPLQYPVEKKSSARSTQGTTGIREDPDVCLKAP

[4] = read-out: percent of DMSO vehicle control

SMILES: NC(=O)CC[C@H](NC(=O)[C@@H]1CC[C@@H]2CCN(C(=O)CCCCCC#Cc3cccc4c3CN(C3CCC(=O)NC3=O)C4=O)C[C@H](NC(=O)c3cc4cc(C(F)(F)P(=O)(O)O)ccc4[nH]3)C(=O)N21)C(=O)NC(c1ccccc1)c1ccccc1 (stereo partly shown) [SD-36]
- remaining activity at 10 µM (CISH): 42.8 ± 5.7%
- Kd [1]: 9.7 ± 4.1 nM
- percent of DMSO vehicle control at 10 µM [1, 4]: 1.6%
- remaining activity at 10 µM (TNS4): 58.1 ± 8.9%
- percent of DMSO vehicle control (PTPN11(SH2dom.N-term.)): 89.9±0.7%
- Kd [2]: 24 ± 12 nM
- percent of DMSO vehicle control at 10 µM [2, 4]: 0%
- Kd [3]: 63 ± 23 nM
- percent of DMSO vehicle control at 10 µM [3, 4]: 0%
- remaining activity at 10 µM (SHIP2): 67.3 ± 2.6%
- remaining activity at 10 µM (SH2D1A): 354%

SMILES: CC[C@H](C)[C@H](NC(=O)[C@H](CO)NC(=O)[C@H](CC(C)C)NC(=O)[C@H](CCCNC(=N)N)NC(=O)[C@H](CO)NC(=O)[C@H](CS)NC(C)=O)C(=O)N[C@@H](Cc1ccc(OP(=O)(O)O)cc1)C(=O)N[C@@H](CC(=O)O)C(=O)N[C@@H](CC(N)=O)C(=O)N[C@H](C(=O)N1CCC[C@H]1C(=O)NCC(N)=O)C(C)C [Ac-CSRLSIpYDNVPG-NH2] (Ac-CSRLSI[pY]DNVPG-NH2)
- Kd (TNS4): 28.3 ± 4.96 nM

SMILES: CC(C)(C)[C@H](NC(=O)/C=C/c1ccc(OP(=O)(O)O)cc1)C(=O)N1CCC[C@H]1C(=O)N(c1ccccc1)c1ccc(I)cc1 [STAT6-IN-3]
- Kd (CISH): 4200 ± 1100 nM
- remaining activity at 10 µM (CISH; primary screen, 10 μM): 26.8 ± 11.8%
- Kd ([1]; read-out: KD): 140 ± 71 nM
- remaining activity at 10 µM [1, 4]: 0.1 ± 0.1%
- KD (TNS4; dose-response): No Hit
- remaining activity at 10 µM (TNS4; primary screen, 10 μM): 21.6 ± 25.3%
- percent of DMSO vehicle control (PTPN11(SH2dom.N-term.)): 73.9±34.6%
- Kd ([2]; read-out: KD): 1900 ± 2300 nM
- remaining activity at 10 µM [2, 4]: 4.4 ± 3.7%
- Kd ([3]; read-out: KD): 1500 ± 750 nM
- remaining activity at 10 µM [3, 4]: 2.1 ± 3.7%
- KD (SHIP2; dose-response): No Hit
- remaining activity at 10 µM (SHIP2; primary screen, 10 μM): 36.5 ± 29.6%
- remaining activity at 10 µM (SH2D1A; primary screen, 10 μM): 68.5 ± 43.7%

SMILES: C/C(=C\C(=O)N[C@H](C(=O)N1CCC[C@H]1C(=O)N(c1ccccc1)c1ccc(I)cc1)C(C)(C)C)c1ccc(OP(=O)(O)O)cc1 [STAT6-IN-1]
- Kd (CISH): 3600 ± 640 nM
- remaining activity at 10 µM (CISH; primary screen, 10 μM): 1.6 ± 2.3%
- Kd ([1]; read-out: KD): 88 ± 31 nM
- remaining activity at 10 µM [1, 4]: 0%
- Kd (TNS4; dose-response, read-out: KD): 1800 ± 420 nM
- remaining activity at 10 µM (TNS4; primary screen, 10 μM): 14 ± 3.4%
- percent of DMSO vehicle control (PTPN11(SH2dom.N-term.)): 76.7±1.3%
- Kd ([2]; read-out: KD): 1000 ± 800 nM
- remaining activity at 10 µM [2, 4]: 0%
- Kd ([3]; read-out: KD): 800 ± 120 nM
- remaining activity at 10 µM [3, 4]: 0%
- Kd (SHIP2; dose-response, read-out: KD): 2030 ± 420 nM
- remaining activity at 10 µM (SHIP2; primary screen, 10 μM): 6.9 ± 3.9%
- remaining activity at 10 µM (SH2D1A; primary screen, 10 μM): 68.7 ± 3.5%

SMILES: O=C(COc1ccc2cc(C(=O)Nc3ccccc3)ccc2c1)NCc1ccc(OP(=O)(O)O)c(OP(=O)(O)O)c1 [Stafib-1]
- Kd (CISH): 3900 ± 8500 nM
- remaining activity at 10 µM (CISH; primary screen, 10 μM): 1.7 ± 2.3%
- remaining activity at 10 µM [1, 4]: 87.4 ± 4.6%
- KD (TNS4; dose-response): No Hit
- remaining activity at 10 µM (TNS4; primary screen, 10 μM): 32.7%
- percent of DMSO vehicle control (PTPN11(SH2dom.N-term.)): 79.2±4.6%
- remaining activity at 10 µM [2, 4]: 157%
- remaining activity at 10 µM [3, 4]: 78.6 ± 15.4%
- remaining activity at 10 µM (SH2D1A; primary screen, 10 μM): 87.8 ± 37.4%
